# Measurements from patent US12144792B2, “Therapeutic agents for neurodegenerative diseases” (priority 2016, dated 2024).
# What was measured:
# Npc1^−/− mice [1] = experiment: Motor function analysis (Open Field Activity Monitor); format: in vivo, mouse; settings: 0.1 g/kg from weaning, nine weeks of age, vs untreated littermates
# Experimental: Separate groups of Npc1^−/− and Npc1^+/+ mice were left untreated, as controls. Motor function analysis was performed on mice at eight and nine weeks of age using an Open Field Activity Monitor according to manufacturer's instructions (Linton Instruments, Amlogger Software). Each mouse was placed in a plastic cage with bedding and analysed for five minutes. Rears were counted manually. Motor function parameters measured were: • 1. Centre Rearing: mice rearing on hind legs unsupported; • 2. Rearing: mice rearing on hind legs with and without the support of cage walls; • 3. Activity: regular movement of the animal including walks; • 4. Front to Back (FR) count: movement of the animal from front to back of the cage; • 5. Active Time: duration (s/min) of activeness regardless of movement; • 6. Mobile Time: duration (s/min) of mobility; • 7. Rearing Time: duration of any rearing.
# Npc1^−/− mice [2] = experiment: Weight data; format: in vivo, mouse; settings: 0.1 g/kg from weaning, vs untreated group
# Description: Separate groups of Npc1^−/− and Npc1^+/+ mice were left untreated, as controls. Animals were weighed twice a week. Weights were averaged (mean) across all mice in each group and compared.
# [3] = test system: patients with Tay-Sachs disease; experiment: Case studies, patient evaluation (SARA, SCAFI, MoCA, mRDS, EQ-5D-5L); format: in vivo, human
# Description: For example, to evaluate overall neurological status, mDRS, a four-domain scale (ambulation, manipulation, language and swallowing), may be applied. Cerebellar function may be evaluated using SARA, an eight-item clinical rating scale (gait, stance, sitting, speech, fine motor function and taxis; range 0-40, where 0 is the best neurological status and 40 the worst), and SCAFI, comprising the 8-m-Walking-Time (8MW; performed by having patients walking twice as quickly as possible from one line to another excluding turning), 9-Hole-Peg-Test (9HPT) and the number of “PATA” repetitions over 10 s. Subjective impairment and quality of life may be evaluated using the EQ-5D-5L questionnaire and VAS. To assess ocular motor function, 3-dimensional videooculography (EyeSeeCam) may be used to measure the peak velocity of saccades, gain of smooth pursuit, peak slow phase velocity of gaze-evoked nystagmus (gaze-holding function), peak slow phase velocity of optokinetic nystagmus, and gain of horizontal vestibulo-ocular reflex. To evaluate the cognitive state, WAIS-R or WISC-W, and MoCA, assessing different cognitive domains, including attention and concentration, executive functions, memory, language, visuoconstructional skills, conceptual thinking, calculations, and orientation with a maximum of 30 points and a cut-off score of 26, may be used. The skilled person will know how to perform these and other such tests.
# Before treatment was commenced, examination of the patient indicated a Scale for Assessment and Rating of Ataxia (SARA) score of 15.5/40. In addition, results from the patient's Spinocerebellar Ataxia Functional Index (SCAFI) analysis were: • Mean 8-meters Walking Test (8MW): 21.6 s • MW 9-Hole Pegboard Test Dominant (9HPTD) (right): 48.3 s • MW 9-Hole Pegboard Test Non-Dominant (9HPTND): 44.9 s • MW PATA Word Test: 20 • Montreal Cognitive Assessment (MoCA): 18/30
# The day following this examination, the patient was started on therapy with acetyl-leucine, at a dose of 3 g per day for the first week, followed by a dose of 5 g per day for the second week onwards.
# The day of the examination, the patient was started on therapy with acetyl-leucine at a dose of 3 g per day for the first week, followed by a dose of 5 g per day for the second week onwards.
# The patient was started on therapy with acetyl-leucine at a dose of 1.5 g per day for the first week, followed by a dose of 3 g per day for the second week onwards.
# [4] = test system: patients with ataxia with oculomotor apraxia type 4; experiment: Case study, report of the patients'; format: in vivo, human; settings: Ex. 18, youngest sibling, AOA4; reported by parent
# Description: In this case study, four patients (male siblings) suffered from, and were later diagnosed with, ataxia with oculomotor apraxia type 4. The older three siblings […], at the time of disease onset. […] The older siblings began treatment with acetyl-leucine […], respectively, and have been on the treatment for approximately four years. No long-term clinical data is available for these three patients.
# The youngest sibling was […] at the time of onset. […] No long-term clinical data is available for the youngest sibling.
# [5] = test system: patients with amyotrophic lateral sclerosis (ALS); experiment: Case studies, medical examination; format: in vivo, human
# Description: The results were documented by video.
# [6] = test system: patient with Lewy Body dementia; experiment: Case study, clinical evaluation; format: in vivo, human; settings: Ex. 17, Lewy Body dementia; 3 g/day one week, 5 g/day thereafter; after four weeks
# Experimental: The patient started taking acetyl-leucine (3 g/day for one week; 5 g/day thereafter) and was evaluated after four weeks. […] Medication was reduced to 3 g/day, and the patient was instructed to stop medication about two weeks later.
# [7] = test system: fibroblast cell line from an NPC patient; experiment: Lysosomal volume via LysoTracker; format: cell-based, human; settings: fibroblasts from NPC patient of mild clinical severity; 1 mM
# Experimental: A fibroblast cell line from an NPC patient was treated for 3 days with N-acetyl-DL-leucine (1 mM) and relative lysosomal volume was quantified via LysoTracker, a fluorescent dye that accumulates in acidic organelles. Increased LysoTracker fluorescence is indicative of an increase in lysosomal size and/or number, and is a hallmark of NPC cells.
# [8] = test system: amyloid precursor protein C-terminal fragments (APP-CTFs); experiment: APP-CTF levels relative to total APP in the cerebellum; format: in vivo, mouse; settings: NPC1−/− mice, 0.1 g/kg body weight daily from 3 weeks of age; sacrificed at 8 weeks
# Experimental: The Niemann-Pick Disease Type C (NPC) mouse model shares a number of pathological features with Alzheimer's disease (AD) as described herein. […] Mice were sacrificed at 8 weeks of age. Levels of amyloid precursor protein C-terminal fragments (APP-CTFs) were evaluated relative to total amyloid precursor protein (APP) levels in the cerebellum for wild type, untreated wild type NPC1^−/− mice, and AL-treated wild type NPC1^−/− mice. Levels of microtubule-associated protein 1A/1B-light chain 3-phosphatidylethanolamine conjugate (LC3-II) were also evaluated relative to levels of tubulin loading control for wild type, untreated wild type NPC1^−/− mice, and AL-treated wild type NPC1^−/− mice.
# [9] = test system: Tay-Sachs disease patient fibroblasts; experiment: Glycosphingolipid (GSL) levels via HPLC; format: cell-based, human; settings: 1 mM for 6 days, p<0.05
# [10] = Ex. 7 Patient 1, ALS, after a further 20 days
smiles,measurement,setting,value
CC(=O)NC(CC(C)C)C(=O)O (racemic) [acetyl-DL-leucine],motor function properties,Npc1^−/− mice [1],significantly improved motor function
same,delay of weight loss symptoms,Npc1^−/− mice [2],delayed these weight loss symptoms by two weeks
same,symptoms on re-examination,"[3]; Ex. 5 Patient 1, Tay-Sachs, 3 then 5 g per day, after four months","stable condition with slightly improved cognitive function but had deterioration of stance, gait and fine motor function"
same,symptoms on re-examination,"[3]; Ex. 5 Patient 1, Tay-Sachs, 3 then 5 g per day, after one month",improved fine motor skills and reduced hand tremor
same,symptoms on re-examination,"[3]; Ex. 5 Patient 2, Tay-Sachs, 3 then 5 g per day, after one month","increased enunciation, improved postural stability, and enhanced cognitive function"
same,symptoms on re-examination,"[3]; Ex. 5 Patient 3, Tay-Sachs, 1.5 then 3 g per day, after one month","improved postural stability, gait and stance, and could speak single words"
same,fine motor skills and speech compared to older siblings,[4],improved fine motor skills and improved speech
same,speech,"[5]; Ex. 7 Patient 1, ALS, 3 then 5 gram per day, after 15 days",significant improvement of speech
same,speech after stopping treatment,"[5]; Ex. 7 Patient 1, ALS, about 7 days plus 1-2 additional weeks off treatment",deterioration of speech
same,paresis of the right foot-dorsiflexors and foot drop,[5]; [10],improved dramatically and were clinically hardly detectable
same,sleep,[5]; [10],improvement in sleep
same,speech,[5]; [10],further improvement of speech
same,symptomatology after resuming treatment,"[5]; Ex. 7 Patient 1, ALS, resumed after second discontinuation","improved symptomatology, in particular speech"
same,symptoms on re-examination,"[5]; Ex. 7 Patient 2, ALS, 3 then 5 g per day, after approximately 2 months","progredient deterioration of the motor function of the left hand, but a discrete improvement of walking"
same,symptomatology,"[5]; Ex. 7 Patient 3, ALS, 3 then 5 g per day, after one month",did not report improvement of symptomatology
same,symptomatology,"[5]; Ex. 7 Patient 4, ALS, 3 then 5 g per day, after about one month",subjective improvement of dysphagia and less hypersalivation
same,symptomatology after suspension,"[5]; Ex. 7 Patient 4, ALS, 10 days after therapy was suspended",worsening of symptomatology
same,patient-reported symptoms,[6],increased fatigue and a deterioration of balance and speech
same,LysoTracker fluorescence (lysosomal volume),[7],significant decrease in LysoTracker fluorescence
same,APP-CTF levels relative to total APP in the cerebellum,[8],lowering of APP-CTFs
same,GSL levels,[9],this decrease was statistically significant
